Laboratory results published in patent publication US5219741A, “Method of making L-proline using an N-acyl-L-protine acylase” (priority 1990, dated 1993).
Where “and” joins values, the source holds several entries; their conditions need not be identical. Equal entries are not always repeated. Entries after “also recorded” stand apart in the source; their conditions may differ. Structures can show the parent of a compound that is named as a salt. Where a SMILES comes first, the peptide text is derived from it. The star is where a group is joined. Cbz = O=C(OCc1ccccc1)*

Test system: N-acyl-L-proline acylase
Experiment: Substrate specificity: hydrolysis of N-acyl amino acids and proline derivatives
Format: biochemical, Comamonas testosteroni DSM 5416
Conditions: not given
Procedure: The activity of acylase was determined with various N-acetyl-L-amino acids and N-chloroacetyl-L-amino acids in a reaction batch with the following composition:
The reaction temperature was 30° C. and the incubation time 15 minutes to 24 hours. 0.2 ml samples of the reaction batch in each instance were mixed at different times with 0.2 ml 10% (w/v) trichloroacetic acid and the denatured protein centrifuged off for 10 minutes at 11,000 rpms in a table centrifuge. The supernatant was diluted with a 0.1M Na citrate buffer pH 2.2 with 25% (v/v) 2.2-thiodiethanol and 0.1% (v/v) phenol 1:5 and 1:50 respectively. The amino acids released were quantitatively detected by an amino-acid analyzer LC 5001 of the firm Biotronic, Maintal, Federal Republic of Germany. In Table 16, the substrates marked with * and the corresponding products were quantified by means of HPLC.
The activity of the acylase was determined with various proline derivatives as under a).

| Structure (SMILES) | Hydrolysis by the acylase (in words) | Hydrolysis rate, times more rapid than N-acetyl-L-proline |
| --- | --- | --- |
| O=C(O)C1CCCCN1C(=O)CCl (racemic) [ClAc--D,L-pipecolic acid, N-chloroacetyl-D,L-pipecolic acid] | reacted at a distinctly lower speed |  |
| O=C(O)C1SCCN1C(=O)CCl (racemic) [ClAc--D,L-thiazolidine-2-carboxylic acid, N-chloroacetyl-DL-thiazolidine-2-carboxylic acid] | hydrolyzed especially well |  |
| CC(=O)N1CC(O)C[C@H]1C(=O)O (stereo partly drawn) [N-acetyl-L-4-hydroxyproline] | hydrolyzes |  |
| COC(=O)[C@@H]1CCCN1C(C)=O [N-acetyl-L-proline methyl ester] | not hydrolyzed |  |
| CC(=O)N1CCC[C@H]1C(N)=O [N-acetyl-L-prolineamide] | not hydrolyzed |  |
| O=C(NCC(=O)N1CCC[C@H]1C(=O)O)OCc1ccccc1 [N-benzyloxycarbonyl-glycyl-L-proline] (Cbz-Gly-Pro-OH) | hydrolyzes |  |
| CCCC(=O)N1CCC[C@H]1C(=O)O [N-butyryl-L-proline] | hydrolyzes |  |
| CCCCCC(=O)N1CCC[C@H]1C(=O)O [N-caproyl-L-proline] | hydrolyzes |  |
| O=C(O)[C@@H]1CCCCN1C(=O)CCl [N-chloroacetyl-L-pipecolic acid] | hydrolyzes |  |
| O=C(O)[C@@H]1CCCN1C(=O)CCl [N-chloroacetyl-L-proline] | hydrolyzes; also recorded: hydrolyzed especially well | about 3.6 times |
| O=C(O)[C@@H]1SCCN1C(=O)CCl [N-chloroacetyl-L-thiazolidine-2-carboxylic acid] | hydrolyzes |  |
| O=C(O)[C@@H]1CSCN1C(=O)CCl [N-chloroacetyl-L-thiazolidine-4-carboxylic acid] | hydrolyzes; also recorded: hydrolyzed especially well |  |
| O=CN1CCC[C@H]1C(=O)O [N-formyl-L-proline] | hydrolyzes |  |
| CCC(=O)N1CCC[C@H]1C(=O)O [N-propionyl-L-proline] | hydrolyzes |  |
| CCCCC(=O)N1CCC[C@H]1C(=O)O [N-valeryl-L-proline] | hydrolyzes |  |
| NCC(=O)N1CCC[C@H]1C(=O)O [glycyl-L-proline] (H-Gly-Pro-OH) | hydrolyzes |  |

Same assay, conditions: 20 mM substrate 1.0 ml in 2.0 ml batch, 30° C., pH 7.0; N-acetyl-L-proline = 100%; amino-acid analyzer

| Structure (SMILES) | Rel. activity (%) |
| --- | --- |
| CC(=O)NC(CO)C(=O)O (racemic) [Ac--D,L--Ser] | 0.2 |
| CC(=O)N[C@@H](CS)C(=O)O [Ac--L--Cys] | 0 |
| CC(=O)N[C@@H](Cc1ccc(O)cc1)C(=O)O [Ac--L--Tyr] | 0 |
| CC(=O)N[C@H](C(=O)O)C(C)C [Ac--L--Val] | 0.2 |
| O=C(CCl)NC1(C(=O)O)CCCCC1 [ClAc--D,L-1-aminocyclohexanoic acid] | 0 |
| CC[C@H](C)[C@H](NC(=O)CCl)C(=O)O [ClAc--L--Ile] | 0.5 |
| O=C(O)[C@@H]1CCCN1C(=O)CCl [N-chloroacetyl-L-proline] | 362 |
| O=C(O)[C@@H]1CSCN1C(=O)CCl [N-chloroacetyl-L-thiazolidine-4-carboxylic acid] | 462 |

Same assay, conditions: proline derivatives; 30° C., pH 7.0; N-acetyl-L-proline = 100%

| Structure (SMILES) | Relative Activity (%) |
| --- | --- |
| CC(=O)N[C@@H](C)C(=O)N1CCC[C@H]1C(=O)O [Ac--L--Ala--L--Pro--OH] (Ac-Ala-Pro-OH) | 0 |
| CC(C)(C)OC(=O)N1CCC[C@H]1C(=O)O [Boc--L--Pro--OH] | 0 |
| C[C@H](N)C(=O)N1CCC[C@H]1C(=O)O [H--L Ala--L--Pro--OH] (H-Ala-Pro-OH) | 0 |
| O=C(O)CNC(=O)[C@@H]1CCCN1 [H--L--Pro--Gly--OH] (H-Pro-Gly-OH) | 0 |
| NC(=O)[C@@H]1CCCN1 [H--L--Pro--NH2] | 0 |
| CC(=O)N1CC(O)C[C@H]1C(=O)O (stereo partly drawn) [N-acetyl-L-4-hydroxyproline] | 10 |
| COC(=O)[C@@H]1CCCN1C(C)=O [N-acetyl-L-proline methyl ester] | 0 |
| CC(=O)N1CCC[C@H]1C(N)=O [N-acetyl-L-prolineamide] | 0 |
| O=C(NCC(=O)N1CCC[C@H]1C(=O)O)OCc1ccccc1 [N-benzyloxycarbonyl-glycyl-L-proline] (Cbz-Gly-Pro-OH) | 11 |
| CCCC(=O)N1CCC[C@H]1C(=O)O [N-butyryl-L-proline] | 14 |
| CCCCCC(=O)N1CCC[C@H]1C(=O)O [N-caproyl-L-proline] | 9 |
| O=C(O)[C@@H]1CCCN1C(=O)CCl [N-chloroacetyl-L-proline] | 362 |
| O=CN1CCC[C@H]1C(=O)O [N-formyl-L-proline] | 18 |
| CCC(=O)N1CCC[C@H]1C(=O)O [N-propionyl-L-proline] | 29 |
| CCCCC(=O)N1CCC[C@H]1C(=O)O [N-valeryl-L-proline] | 15 |
| O=C(O)[C@H]1CCCN1C(=O)OCc1ccccc1 [Z--D--Pro--OH] | 0 |
| C[C@H](NC(=O)[C@@H]1CCCN1C(=O)OCc1ccccc1)C(=O)O [Z--L--Pro--L--Ala--OH] (Cbz-Pro-Ala-OH) | 0 |
| NC(=O)[C@@H]1CCCN1C(=O)OCc1ccccc1 [Z--L--Pro--NH2] | 0 |
| O=C(O)[C@@H]1CCCN1C(=O)OCc1ccccc1 [Z--L--Pro--OH] | 0 |
| NCC(=O)N1CCC[C@H]1C(=O)O [glycyl-L-proline] (H-Gly-Pro-OH) | 4 |

Same assay, conditions: quantified by HPLC; N-acetyl-L-proline = 100%

| Structure (SMILES) | Rel. activity (%) |
| --- | --- |
| CC(=O)N1CC[C@H]1C(=O)O [Ac--L-azetidine-2-carboxylic acid] | 0 |
| O=C(O)[C@@H]1Cc2ccccc2N1C(=O)CCl [ClAc--L-indolin-2-carboxylic acid] | 0 |

Same assay, conditions: substrate concentration 50 mM; quantified by HPLC; N-acetyl-L-proline = 100%

| Structure (SMILES) | Rel. activity (%) |
| --- | --- |
| O=C(O)C1CCCCN1C(=O)CCl (racemic) [ClAc--D,L-pipecolic acid, N-chloroacetyl-D,L-pipecolic acid] | 16 |
| O=C(O)C1SCCN1C(=O)CCl (racemic) [ClAc--D,L-thiazolidine-2-carboxylic acid, N-chloroacetyl-DL-thiazolidine-2-carboxylic acid] | 202 |

Test system: N-acyl-L-proline acylase
Experiment: not given
Format: biochemical, Comamonas testosteroni DSM 5416
Conditions: not given
Procedure: The enzymatic reaction was interrupted by pipetting 50 μl of the enzyme sample into 1.25 ml 100% acetic acid. Subsequently, 0.45 ml 0.1M tris-HCl buffer pH 7.0 and 1.25 ml ninhydrin reagent (3 g ninhydrin dissolved by heating in a mixture of 60 ml 100% acetic acid and 40 ml 6M phosphoric acid) were added. The ninhydrin reagent was freshly prepared daily. The test tubes were loosely closed with screw-on caps, incubated 30 minutes at 100° C. and subsequently cooled down in an ice bath.
The L-proline, liberated by the enzymatic hydrolysis, forms a red dye with ninhydrin at 100° C. The absorption of the red dye was measured in a spectrophotometer at 480 nm relative to a control batch without crude extract (=substrate blank). The concentration of the L-proline produced was determined using a straight calibration line with L-proline in a range of 5 to 100 nmoles per 50 μl specimen. The enzyme activity was indicated in international units; thus, one unit (U) corresponded to an amount of 1 μmole L-proline produced per minute.
The influence of various chemical agents as well as metal cations and anions on the reaction speed of the hydrolytic splitting of N-acetyl-L-proline was determined at 30° C. in a reaction batch with the following composition: […]
The enzyme was pre-incubated for 10 minutes at 30° C. with the compound before the addition of substrate to start the reaction.
The enzyme was pre-incubated for 10 minutes at 30° C. with the agent before the substrate was added to start the reaction.
The enzyme was pre-incubated 10 minutes at 30° C. with the agent before the substrate was added to start the reaction. The concentration of the anions was 10 mM in each instance.

| Structure (SMILES) | Activity (%) | Influence on the acylase activity (in words) | Inhibiting mechanism |
| --- | --- | --- | --- |
| O=C(O)CN(CCN(CC(=O)O)CC(=O)O)CC(=O)O [EDTA] | 101% and 99% |  |  |
| N[C@@H](CCC(=O)N[C@@H](CS)C(=O)NCC(=O)O)C(=O)O [Glutathione] | 116% and 135% |  |  |
| O=C(O)CI [Iodoacetate] | 97% and 77% |  |  |
| O=C(O)O [Na2 CO3] | 75% | slightly inhibited |  |
| [Cl-].[Na+] [NaCl] | 99% |  |  |
| O=P([O-])(O)O.[Na+] [NaH2 PO4] |  |  | non-competitive |
| O=N[O-].[Na+] [NaNO2] | 71% | slightly inhibited |  |

Same assay, conditions: anion 10 mM; no agent = 100

| Structure (SMILES) | Activity (%) |
| --- | --- |
| O=[N+]([O-])[O-].[K+] [KNO3] | 96 |
| O=S(=O)([O-])[O-].[Na+].[Na+] [Na2 SO4] | 96 |
| O=P([O-])(O)O.[Na+] [NaH2 PO4] | 6 |

Same assay, conditions: chemical agent 0.1 mM; 10 min pre-incubation at 30° C.

| Structure (SMILES) | Activity (%) |
| --- | --- |
| O=S(=O)(F)Cc1ccccc1 [PMSF] | 104 |

Same assay, conditions: chemical agent 1 mM; 10 min pre-incubation at 30° C.; no agent = 100

| Structure (SMILES) | Activity (%) |
| --- | --- |
| O[C@H](CS)[C@H](O)CS (racemic) [Dithiothreitol] | 129 |
| c1ccc(-c2ccccn2)nc1 [2,2-bipyridine] | 102 |
| O=C([O-])c1cc[c]([Hg][Cl])cc1 [4-chloromercuribenzoate] | 85 |
| O=C([O-])c1cc[c]([Hg][OH])cc1 [4-hydroxymercuribenzoate] | 88 |
| NC(=O)CI [Iodoacetamide] | 104 |
| O=C(O)CC(O)(CC(=O)O)C(=O)O [Na citrate] | 102 |
| O=S(=O)(F)Cc1ccccc1 [PMSF] | 130 |
| NNC(N)=O [Semicarbazide] | 109 |

Same assay, conditions: chemical agent 10 mM; 10 min pre-incubation at 30° C.; no agent = 100

| Structure (SMILES) | Activity (%) |
| --- | --- |
| O[C@H](CS)[C@H](O)CS (racemic) [Dithiothreitol] | 48 |
| c1ccc(-c2ccccn2)nc1 [2,2-bipyridine] | 66 |
| O=C([O-])c1cc[c]([Hg][Cl])cc1 [4-chloromercuribenzoate] | 48 |
| O=C([O-])c1cc[c]([Hg][OH])cc1 [4-hydroxymercuribenzoate] | 41 |
| NC(=O)CI [Iodoacetamide] | 101 |
| O=C(O)CC(O)(CC(=O)O)C(=O)O [Na citrate] | 102 |
| NNC(N)=O [Semicarbazide] | 95 |

Same assay, conditions: chemical agent 14 mM; 10 min pre-incubation at 30° C.

| Structure (SMILES) | Activity (%) |
| --- | --- |
| OCCS [2-mercaptoethanol] | 14 |

Same assay, conditions: native enzyme

| Structure (SMILES) | Influence on the acylase activity (in words) |
| --- | --- |
| OCCS [2-mercaptoethanol] | inhibiting action; also recorded: significantly inhibit |
| O=C([O-])c1cc[c]([Hg][Cl])cc1 [4-chloromercuribenzoate] | inhibiting action; also recorded: significantly inhibit |
| O=C([O-])c1cc[c]([Hg][OH])cc1 [4-hydroxymercuribenzoate] | inhibiting action; also recorded: significantly inhibit |

Same assay, conditions: native enzyme; listed as PO4^3-

| Structure (SMILES) | Influence on the acylase activity (in words) |
| --- | --- |
| O=P([O-])(O)O.[Na+] [NaH2 PO4] | inhibiting action |

Same assay, conditions: native enzyme; listed as Phosphate

| Structure (SMILES) | Influence on the acylase activity (in words) |
| --- | --- |
| O=P([O-])(O)O.[Na+] [NaH2 PO4] | inhibited |

Same assay, conditions: native enzyme; listed as phosphate

| Structure (SMILES) | Influence on the acylase activity (in words) |
| --- | --- |
| O=P([O-])(O)O.[Na+] [NaH2 PO4] | sharply inhibited |
